We go through one compound from patent US11629333B2, “Gamma delta T cells and a method of augmenting the tumoricidal activity of the same” (Agency for Science, Technology and Research, priority 2017, dated 2023).

One assay deals with Human PBMCs. The experiment in a line: Expansion of Vγ9Vδ2 T cells from PBMCs, cell frequencies by flow cytometry. The format is cell-based. From the text: FIGS. 1A to 1D (collectively referred to as “FIG. 1”) show the characterization of the cells expanded with Zometa, OKT3 and gamma-irradiated K562 aAPCs. Human PBMCs were first expanded with Zometa for 7 days, followed by treatment with Zometa, OKT3 and gamma-irradiated K562 aAPCs for another 10 days. Frequencies of Vγ9Vδ2 T cells (FIG. 1A), NKG2D-positive cells (FIG. 1B), CD3-positive alpha beta T cells (FIG. 1C) and CD3-negative, CD56-positive NK cells (FIG. 1D) in PBMCs, on day 7 and day 17 analyzed by flow cytometry are shown. PBMC samples from 7 donors were tested and each sample is represented by one line.
Human PBMC were isolated from fresh buffy coat of healthy donors by density gradient centrifugation using Ficoll-Paque (GE Healthcare, Milwaukee, Wis.). Human myelogenous leukemia cell line K562 (ATCC) and a K562-based aAPC cell line genetically engineered for stable expression of EGFP, CD86, CD64 and 4-1BBL (Du et al., 2016) were cultured in IMDM (Lonza Biotech, Basel, Switzerland) supplemented with 10% FBS. Other tumor cell lines used in the present invention were cultured in DMEM supplemented with 10% FBS.
(§1) For Vγ9Vδ2 T cell activation and expansion, PBMCs were seeded at a density of 2E6 cells/ml in AIM-V (Life Technologies) supplemented with 5% human AB serum (Valley Biomedical, Winchester, Va.). Zometa (5 μM, Sigma Aldrich, St. Louis, Mo.) and IL-2 (300 IU/ml) were added on day 0, followed by adding 50 ng/ml anti-CD3 antibody (OKT3 clone, eBioscience, San Diego, Calif.), gamma irradiated K562 aAPCs at a 100:1 ratio, 300 IU/ml IL-2, and 5 μM Zometa from day 7 onwards. […] The culture medium was refreshed every 2 to 3 days. In other words, the cells were passaged every 2 to 3 days.

The test system of assay [1] is CTLA-4, PD1, LAG3, TIGIT, TIM3, and BTLA. In words: Expression of co-inhibitory receptors on PBMCs and expanded cells by flow cytometry. The format is cell-based, human.
Source text: FIGS. 2A to 2F (collectively referred to as “FIG. 2”) show the expression of co-inhibitory receptors CTLA-4 (FIG. 2A), PD-1 (FIG. 2B), LAG-3 (FIG. 2C), TIGIT (FIG. 2D), TIM-3 (FIG. 2E) and BTLA (FIG. 2F) on PBMCs and the expanded cells. Human PBMCs were first expanded with Zometa for 7 days, followed by treatment with Zometa, OKT3 and gamma-irradiated K562 aAPCs for another 10 days. The expression frequencies of 6 co-inhibitory receptors on PBMCs and on the expanded cells collected on day 7 and day 17 analyzed by flow cytometry are shown. PBMC samples from 7 donors were tested and each sample is represented by one line.
as §1
In view of the important roles of co-inhibitory receptors in cancer therapy, the expression of six of them, namely, CTLA-4, PD1, LAG3, TIGIT, TIM3, and BTLA, on the Zometa-expanded Vγ9Vδ2 T cells was examined using flow cytometry (FIG. 2).

Assay [2] deals with SW480 human colon carcinoma cells, HepG2 human hepatocarcinoma cells, U87 human glioblastoma cells and SKOV3 human ovarian cancer cells. The experiment in a line: Delfia EuTDA cytotoxicity assay, tumor cells with or without Zometa pre-treatment. Format: cell-based. The conditions noted are these: 1 μM Zometa pre-treatment of tumor cells. How it is done:
Target tumor cells tested were SW480 human colon carcinoma, HepG2 human hepatocarcinoma cells, U87 human glioblastoma cells and SKOV3 human ovarian cancer cells. Tumor cells were either pre-treated with 1 μM Zometa or without Zometa treatment. Effector used are indicated. Delfia EuTDA cytotoxicity assay (3 hours EuTDA culturing) was used to assess tumor cell lysis efficiency at an effector to target ratio of 10:1. The results of one representative experiment out of three are shown.
The cytolytic activity of CAR-modified Vγ9Vδ2 T cells was examined with a non-radioactive method (DELFIA EuTDA Cytotoxicity Reagents kit, PerkinElmer, MA). Time-resolved fluorescence was measured in Victor3 multilabel plate counter (PerkinElmer). The effector to target (E:T) ratios used ranged from 20:1 to 2.5:1. Control groups were set up to measure spontaneous release (only target cells added), maximum release (target cells added with 10 μl lysis buffer), and medium background (no cell added). Killing efficacy was calculated by using the following formula: […]
Zometa treatment was used because Zometa can increase intracellular levels of IPP, thereby increasing the sensitivity of tumor cells to Vγ9Vδ2 T cells.

[3] abbreviates: PBMCs treated with Zometa, day 7.
Where [4] appears, read: 7 days after Zometa treatment, all 7 samples.

Consider `O=P(O)(O)C(O)(Cn1ccnc1)P(=O)(O)O` [Zometa, zoledronic acid], for which, in the assay with Human PBMCs (PBMCs treated with 5 μM Zometa, day 0 to day 7), the NKG2D-positive cell population result is recorded as “increase”. In addition, the “Vγ9Vδ2 T-cell population” value with Human PBMCs (PBMCs treated with 5 μM Zometa, day 7) is given as about 90%. In the assay on Human PBMCs (setting [3]), the “proportion of NK cells” value was “less than 3%” and the “proportion of αβ T cells” value is reported as “less than 10%”. Besides, in assay [1] (setting [4]), the CTLA-4-expressing cells entry was “significant increase”, the LAG3-expressing cells entry is “significant increase”, the TIGIT-expressing cells result is “significant increase” and the TIM3-expressing cells result is “significant increase”. The “frequency of PD1-positive cells” value in assay [1] (7 days after Zometa treatment, remaining samples (one sample increased, one decreased)) was “minor increase or no change”. In addition, the BTLA expression result in assay [1] (Zometa treatment for 7 days) is on record as “reduced”. Also, the “sensitivity of HepG2 cells towards Vγ9Vδ2 T cells” value in assay [2] (HepG2) is “not”. Further, in assay [2] (SKOV3), the “sensitivity of SKOV3 cells towards Vγ9Vδ2 T cells” value was “significantly increased”. Moreover, in assay [2] (SW480), the “sensitivity of SW480 cells towards Vγ9Vδ2 T cells” value is listed as “significantly increased”. Further, the “sensitivity of U87 cells towards Vγ9Vδ2 T cells” value in assay [2] (U87) is reported as “significantly increased”.
